From patent publication US10577406B2, “FKBP-L polypeptides and uses in angiogenesis-mediated disorders” (ALMAC DISCOVERY LIMITED, priority 2006, dated 2020)

Legend:
[1] = system: HMEC-1 (microvascular endothelial cells; CD44+ve); assay: cell invasion in a modified Boyden chamber system, HMEC-1; assay type: cell-based, Human; conditions: 48 h
Protocol: (§1) Twelve well plate polycarbonate inserts were divided into two groups with half remaining uncoated and half coated with 100 μg/cm^2 of Matrigel. The coated inserts were allowed to dry overnight at room temperature in a sterile tissue culture hood. The required cell line; HMEC-1, PC3 or MDA231 was trypsinised, re-suspended in fresh medium and the cell number calculated. 5×10^5 cells, in a total volume of 500 μl, were added to the insert (top chamber) and 1.5 ml of complete medium added to the bottom chamber of the plate as a stimulus for invasion. FKBP-L 24mer was added to both the upper and lower chamber of the plate at the required concentration in the experimental wells. The plate was incubated for 24 h (PC3 or MDA231) or 48 h (HMEC-1).
(§2) The inserts were carefully removed from their 12 well plate and inserts without Matrigel coating were placed directly into Carnoys fixative. […]
(§3) The polycarbonate inserts were cut from the holders and placed on to mounting medium on a microscope slide. […] The slides were stored at 4° C. until analysed.
(§4) Ten images from each insert were captured and the number of fluorescent cells per image was analysed by Lucia Imaging software. The ratio of cells visible on non-coated inserts compared to cells visible on Matrigel coated inserts was expressed as % invasion. […]

PC3 (Prostate; CD44+ve) = assay: cell invasion in a modified Boyden chamber system, PC3; assay type: cell-based; conditions: 24 h
Protocol: as §1, §2, §3, §4

[2] = system: mouse endothelial cells, 2H-11; assay: wound scrape assay in a mouse endothelial cell line; assay type: cell-based; conditions: 10^−14-10^−7 M; 7 hours
Protocol: This experiment evaluated the ability of the FKBP-L 24mer to inhibit endothelial cell migration over a dose ranges spanning from 10^−14 M to 10^−7 M. The in vitro migration assay used in these studies is a modified version of the method described by Ashton et al (1999) see supra. In this assay mouse endothelial cells, 2H-11, were obtained from the American Tissue Culture Collection and were grown in D-MEM containing 10% FCS. They were plated into individual chambers on a glass slide and grown to 90% confluence overnight. The medium was removed and the monolayer wounded. The monolayer was re-supplemented with fresh medium and the required volume of the FKBPL 24mer peptide was added to achieve a dose range from 10^−14-10^−7 M. The monolayers were incubated for 7 hours and then fixed in 4% PBS buffered paraformaldehyde.
The extent of “wound” closure was blindly assessed microscopically by an independent investigator and quantified using a calibrated eyepiece graticule (1 mm/100 μm graduation) at 20× magnification (Olympus BX 50). The extent of closure in the FKBP-L 24mer treated slides was compared to time matched sham treated controls and the % inhibition of wound closure compared to time matched controls calculated.

DU145 tumours = assay: prostate cancer xenograft model, daily IP injection; assay type: in vivo, SCID mice
Protocol: Du145 (prostate carcinoma) cells were obtained from Cancer Research UK and cultured in RPMI 1640 medium (Invitrogen) supplemented with 10% foetal calf serum. All cell lines were grown as monolayers, incubated at 37° C. under 5% CO2.
24 male immunocompromised (severe combined immunodeficient) mice were used (Harlan). The mice were acclimatised and caged in groups of 5 or less in an isolator. Du145 (prostate carcinoma) cells were cultured as previously described. Sub-confluent cells were harvested and the cell concentration was adjusted to 5×10^7 cells/ml in PBS. The dorsum of each mouse was shaved. After administrating aesthetic, each mouse received intra-dermal injections of 5×10^6 Du145 tumour cells (100 μl) bilaterally into the rear dorsum with a 26-gauge needle. The tumours were allowed to grow until they reached a volume of 150-175 mm^3. The mice were randomly divided into four treatment groups: (a) Control: PBS only (8 mice); (b) 24mer FKBPL peptide: 0.3 mg/kg/day (6 mice); (c) 24mer FKBPL peptide: 3×10^−3 mg/kg/day (6 mice); and (d) 24mer FKBPL peptide: 3×10^−4 mg/kg/day (5 mice).
The mice received daily IP injections (100 μl) of the above treatments. The weight and the tumour volume of each mouse were recorded every 2 days. Tumour volume was calculated as: Length×Breadth×Height×0.5236. Twenty-one days after initial treatment the following animals were sacrificed: 0.3 mg/kg/day 24mer FKBPL (2 mice), 3×10^−3 mg/kg/day (2 mice), 3×10^−4 mg/kg/day (1 mouse) and PBS (2 mice). The tumours were excised and stored in saline formalin solution for future histopathological analysis.

HMEC-1 cells [3] = assay: MTT assay of cell viability/proliferation; conditions: 24mer 10^−5-10^−10M, 1-57mer 10^−9M and 10^−10M; 24 hours and 48 hours
Protocol: (§5) An MTT assay was used to measure cell viability/proliferation.
(§6) An MTT assay was used to measure cell viability and/or proliferation. Briefly, HMEC-1 cells were seeded (2.5×10^3) in 96 well plates and allowed to attach for 5 h. The cells were treated with FKBP-L 24mer (SEQ ID NO: 10) (10^−5-10^−10M), 1-57mer (SEQ ID NO: 6) (10^−9M and 10^−10M) or medium (control).
(§7) Post incubation the cells were exposed to a 5 mgml^−1 solution of 3-(-4,5-dimethylthiazol-2-yl) 2,5 diphenyl tetrazolium (MTT) for 4 h. The cells were aspirated and 200 μl of DMSO added to reduce the salt and induce a colour change.

migrating HMEC-1 = assay: immunohistochemical analysis of cytoskeletal morphology (anti-tubulin, anti-vimentin, confocal microscopy); assay type: cell-based, Human; conditions: 750 ngml^−1; 5 hours after wounding
Protocol: Immunohistochemical analysis was carried out to assess cytoskeletal morphology upon treatment with FKBP-L by staining for tubulin and vimentin. HMEC-1 were seeded in four well chamber slides and incubtated overnight until confluent monolayers had formed. Media was removed from each well and the monolayer wounded as previously described. The cells were re-supplemented with medium containing 750 ngml^−1 recombinant His-tagged FKBP-L protein (i.e., SEQ ID NO: 1). The cells were incubated for 5 hours and the chambers were removed from the slides and the cells washed four times in PBS followed by fixation in 4% PBS buffered paraformaldehyde treated with 0.1% Triton X for 20 minutes. The cells were washed three times in PBS, and blocked for 20 minutes in 2% BSA containing 0.1% Triton X. Blocked cells were washed in PBS and incubated with one of the following monoclonal primary antibodies: (A) anti α tubulin (1:500); and (B) anti-vimentin (1:200), for 90 minutes. The cells were washed in PBS followed by a 1 hour incubation with FITC conjugated anti-mouse secondary (1:30) at room temperature. The cells were mounted with Vectashield containing propidium iodide and sealed to prevent dehydration. The slides were covered in tinfoil and stored at 4° C. for analysis using fluorescence confocal microscopy.

HMEC-1 cells [4] = system: HMEC-1 cells
Protocol: as §5, §6, §7

H-QIRQQPRDPPTETLELEVSPDPAS-OH [FKBP-L 24mer]
effect on cell invasion through Matrigel [1]: potent inhibitor
effect on cell invasion through Matrigel (PC3 (Prostate; CD44+ve)): potent inhibitor
effect on wound closure in mouse endothelial cells [2]: inhibited wound closure
tumors compared with controls (Kaplan-Meier, time to 3× treatment volume) (DU145 tumours; 0.0003 mg/kg/day, daily IP): not significantly different from controls
time for tumours to reach 3× their treatment volume (Kaplan-Meier survival) (DU145 tumours; 0.003 mg/kg/day, daily IP): significantly later than controls
time for tumours to reach 3× their treatment volume (Kaplan-Meier survival) (DU145 tumours; 0.3 mg/kg/day, daily IP): significantly later than controls
tumours that failed to reach their volume tripling within the duration of the experiment (all but the stated number) (DU145 tumours; 0.3 mg/kg/day, daily IP): All but two tumours (of 6)
growth of DU145 tumours compared to vehicle only treated tumours (DU145 tumours; 0.3 mg/kg/day, daily i.p.): significantly slowed the growth
growth of DU145 tumours compared to vehicle only treated tumours (DU145 tumours; 3×10^−3 mg/kg/day, daily i.p.): significantly slowed the growth
body weight after daily treatment (tolerability) (DU145 tumours; daily IP injection): None of the animals lost weight
tumour appearance (DU145 tumours; most effective doses, daily i.p., a number of tumours): evidence of a necrotic centre
effect on proliferation of HMEC-1 cells compared to time-matched controls (HMEC-1 cells [3]): neither of the peptides had any significant effect

B1: full length recombinant FKBP-L: recombinant full length his-tagged FKBP-L protein (SEQ ID NO: 1) expressed in BL21 (DE3) (protein, listed as Homo sapiens)
chain: MRGSHHHHHHGMASMTGGQQMGRDLYDDDDKDRWGSMETPPVNTIGEKDTSQPQQEWEKNLRENLDSVIQIRQQPRDPPTETLELEVSPDPASQILEHTQGAEKLVAELEGDSHKSHGSTSQMPEALQASDLWYCPDGSFVKKIVIRGHGLDKPKLGSCCRVLALGFPFGSGPPEGWTELTMGVGPWREETWGELIEKCLESMCQGEEAELQLPGHTGPPVGLTLASFTQGRDSWELETSEKEALAREERARGTELFRAGNPEGAARCYGRALRLLLTLPPPGPPERTVLHANLAACQLLLGQPQLAAQSCDRVLEREPGHLKALYRRGVAQAALGNLEKATADLKKVLAIDPKNRAAQEELGKVVIQGKNQDAGLAQGLRKMFG
modifications: His tag
intermediate filament morphology (anti-vimentin staining) (migrating HMEC-1): highly disorganized
microtubule morphology (anti α tubulin staining) (migrating HMEC-1): little alignment into the wound
effect on proliferation of HMEC-1 cells compared to time matched controls (HMEC-1 cells [4]): no significant effect
